The supplement of paper PMC8920030

Columns and labels:
Settings in all cases: growth mode: biofilm, 24 h; exposure time: 24 h
[1] = compound: T1, NC[C@H]1O[C@H](O[C@H]2[C@H](O)[C@@H](O[C@H]3O[C@H](CO)[C@@H](O)[C@H](N)[C@H]3O)[C@H](N)C[C@@H]2N)[C@H](N)C[C@@H]1O [tobramycin]; assay: minimum concentration of killing, 4-log CFU reduction of biofilm (MCK99.99); higher = more biofilm tolerance
Procedure: (§1)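 Clinical P. aeruginosa isolates were grown as static biofilms for 24 h at 37 °C in LB in half-area 96-well plates, then exposed for 24 h to tobramycin at 1, 4, 16, 64, 256 or […]. Surviving CFU were counted by spotting serial dilutions. MCK is the lowest tested concentration giving the stated log reduction in CFU versus an untreated control; '>1024' means the reduction was not reached at the top dose, and 1 is the lowest dose tested (≤1).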

[2] = compound: T2, CCC(C)CCCC(=O)N[C@@H](CCN)C(=O)N[C@H](C(=O)N[C@@H](CCN)C(=O)N[C@H]1CCNC(=O)[C@H]([C@@H](C)O)NC(=O)[C@H](CCN)NC(=O)[C@H](CCN)NC(=O)[C@H](CC(C)C)NC(=O)[C@@H](CC(C)C)NC(=O)[C@H](CCN)NC1=O)[C@@H](C)O [colistin]; assay: as above
Procedure: as §1, with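 “colistin” for “tobramycin”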

[3] = compound: T2, colistin; assay: minimum concentration of killing, 1-log CFU reduction of biofilm (MCK90); higher = more biofilm tolerance
Procedure: as §1, with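 “colistin” for “tobramycin”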

[4] = compound: T2, colistin; assay: minimum concentration eradicating biofilm below detection limit (MCK-E); higher = more biofilm tolerance
Procedure: as §1, with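 “colistin” for “tobramycin”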

[5] = compound: T1, tobramycin; assay: minimum concentration of killing, 1-log CFU reduction of biofilm (MCK90); higher = more biofilm tolerance
Procedure: as §1

[6] = compound: T1, tobramycin; assay: minimum concentration eradicating biofilm below detection limit (MCK-E); higher = more biofilm tolerance
Procedure: as §1

[7] = compound: T2, colistin; assay: minimum concentration of killing, 2-log CFU reduction of biofilm (MCK99); higher = more biofilm tolerance
Procedure: as §1, with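 “colistin” for “tobramycin”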

[8] = compound: T1, tobramycin; assay: as above
Procedure: as §1

With “Pseudomonas aeruginosa clinical isolate CH2522” the “minimum concentration of killing” value [1] was 1020 µg/mL, the “minimum concentration of killing” value [2] was 256 µg/mL and the “minimum concentration of killing” value [3] was 64 µg/mL. For the same test system, the “minimum concentration eradicating biofilm below detection limit” value [4] was 256 µg/mL, the “minimum concentration of killing” value [5] was 16 µg/mL and the “minimum concentration eradicating biofilm below detection limit” value [6] was 1020 µg/mL. The “minimum concentration of killing” value [7] was 64 µg/mL and the “minimum concentration of killing” value [8] was 16 µg/mL.
For “Pseudomonas aeruginosa clinical isolate CH2527”, the “minimum concentration of killing” value [1] was 256 µg/mL, the “minimum concentration of killing” value [2] was 256 µg/mL and the “minimum concentration of killing” value [3] was 256 µg/mL. For the same test system, the “minimum concentration eradicating biofilm below detection limit” value [4] was 256 µg/mL, the “minimum concentration of killing” value [5] was 64 µg/mL and the “minimum concentration eradicating biofilm below detection limit” value [6] was 1020 µg/mL. The “minimum concentration of killing” value [7] was 256 µg/mL and the “minimum concentration of killing” value [8] was 64 µg/mL.
With “Pseudomonas aeruginosa clinical isolate CH2582” the “minimum concentration of killing” value [1] was 64 µg/mL, the “minimum concentration of killing” value [2] was 256 µg/mL and the “minimum concentration of killing” value [3] was no more than 1 µg/mL. For the same test system, the “minimum concentration eradicating biofilm below detection limit” value [4] was 1020 µg/mL, the “minimum concentration of killing” value [5] was no more than 1 µg/mL and the “minimum concentration eradicating biofilm below detection limit” value [6] was 64 µg/mL. For the same test system, the “minimum concentration of killing” value [7] was 256 µg/mL and the “minimum concentration of killing” value [8] was 4 µg/mL.
“Pseudomonas aeruginosa clinical isolate CH2597” was tested, and the “minimum concentration of killing” value [1] was 256 µg/mL, the “minimum concentration of killing” value [2] was 256 µg/mL and the “minimum concentration of killing” value [3] was 256 µg/mL. The “minimum concentration eradicating biofilm below detection limit” value [4] was 256 µg/mL, the “minimum concentration of killing” value [5] was 256 µg/mL and the “minimum concentration eradicating biofilm below detection limit” value [6] was 256 µg/mL. The “minimum concentration of killing” value [7] was 256 µg/mL and the “minimum concentration of killing” value [8] was 256 µg/mL.
For “Pseudomonas aeruginosa clinical isolate CH2598”, the “minimum concentration of killing” value [1] was 256 µg/mL, the “minimum concentration of killing” value [2] was 256 µg/mL and the “minimum concentration of killing” value [3] was 256 µg/mL. For the same test system, the “minimum concentration eradicating biofilm below detection limit” value [4] was 256 µg/mL, the “minimum concentration of killing” value [5] was 4 µg/mL and the “minimum concentration eradicating biofilm below detection limit” value [6] was 256 µg/mL. The “minimum concentration of killing” value [7] was 256 µg/mL and the “minimum concentration of killing” value [8] was 16 µg/mL.
For “Pseudomonas aeruginosa clinical isolate CH2658”, the “minimum concentration of killing” value [1] was 64 µg/mL, the “minimum concentration of killing” value [2] was 256 µg/mL and the “minimum concentration of killing” value [3] was 64 µg/mL. For the same test system, the “minimum concentration eradicating biofilm below detection limit” value [4] was 256 µg/mL, the “minimum concentration of killing” value [5] was 4 µg/mL and the “minimum concentration eradicating biofilm below detection limit” value [6] was 256 µg/mL. For the same test system, the “minimum concentration of killing” value [7] was 256 µg/mL and the “minimum concentration of killing” value [8] was 16 µg/mL.
In the case of “Pseudomonas aeruginosa clinical isolate CH5531”, the “minimum concentration of killing” value [1] is reported as 256 µg/mL, the “minimum concentration of killing” value [5] is reported as 16 µg/mL and the “minimum concentration eradicating biofilm below detection limit” value [6] is reported as 1020 µg/mL. For the same test system, the “minimum concentration of killing” value [8] was 256 µg/mL.
With “Pseudomonas aeruginosa clinical isolate CH5548” the “minimum concentration of killing” value [1] was 16 µg/mL, the “minimum concentration of killing” value [5] was 4 µg/mL and the “minimum concentration eradicating biofilm below detection limit” value [6] was 64 µg/mL. For the same test system, the “minimum concentration of killing” value [8] was 4 µg/mL.
“Pseudomonas aeruginosa clinical isolate CH5591” was tested, and the “minimum concentration of killing” value [1] was greater than 1020 µg/mL, the “minimum concentration of killing” value [5] was 1020 µg/mL and the “minimum concentration eradicating biofilm below detection limit” value [6] was greater than 1020 µg/mL. For the same test system, the “minimum concentration of killing” value [8] was 1020 µg/mL.
“Pseudomonas aeruginosa clinical isolate ESP057” was tested, and the “minimum concentration of killing” value [1] was 256 µg/mL, the “minimum concentration of killing” value [2] was 256 µg/mL and the “minimum concentration of killing” value [3] was 256 µg/mL. For the same test system, the “minimum concentration eradicating biofilm below detection limit” value [4] was 256 µg/mL, the “minimum concentration of killing” value [5] was no more than 1 µg/mL and the “minimum concentration eradicating biofilm below detection limit” value [6] was 256 µg/mL. The “minimum concentration of killing” value [7] was 256 µg/mL.
